Laboratory results as given in patent US11419856B2, “Pharmaceutical combinations for use in the treatment of neoplastic diseases” (Basilea Pharmaceutica International AG, priority 2017, dated 2022).

How the values were obtained:
[1] = Pharmacokinetic profile in mouse plasma (LC-MS/MS), single agents vs combination; type: in vivo; details: non-tumor bearing mice; BAL101553 daily, eribulin every two days to steady state; 10 minutes to 24 hours; FIG. 6
Experimental: Female NCI Ath/nu non-tumor bearing mice were treated either with BAL101553, eribulin or with a combination of BAL101553 and eribulin where eribulin was administered 30 minutes before BAL101553. Control animals received vehicle control. The mice were dosed until steady state was reached (BAL101553 was dosed daily and eribulin was dosed once every two days, the doses used for the combination-treatment matched those used in the monotherapy). Blood was taken from every animal according to a determined schedule covering a time window of 10 minutes to 24 hours, processed for plasma and subsequently analyzed by LC-MS/MS for the determination of BAL27862 (parent drug of BAL101553) and eribulin concentrations (ng/ml plasma). Data points represent mean values of ng/ml plasma concentration+/−SEM (n=3 animals).
The in vivo combination of BAL101553 with eribulin in the TNBC xenograft model MDA-MB-231 led to a higher proportion of cures or tumor free animals than observed in the single agent treatment groups. […] The mice were either treated with BAL101553, eribulin or the combination thereof, and plasma concentrations of BAL27862 and eribulin at various time points were determined (FIG. 6).

MiaPaCa2 = assay: Soft agar assay, IC50 of single agents in MiaPaCa2; type: cell-based; details: Homo sapiens, MIA PaCa-2
Experimental: (§1) Example 5: Determination of Drug Interaction in Cell Lines by Soft Agar Assay
(§2) The combination of BAL101553 with eribulin was tested in various cell lines by soft agar assay. Table 1 and Table 2 present the results according to coefficient of drug interaction based on colony number (Table 1) and total area of colonies (Table 2). In both cases the coefficient of drug interaction is calculated according to the formula described in Zhao et al., J Intercult Ethnopharmacol. 2014, 3(2): 68-72): (combination/untreated)/[(compound1/untreated)×(compound2/untreated)]

HCT116 = assay: Soft agar assay, IC50 of single agents in HCT116; type: cell-based; details: Homo sapiens, HCT-116
Experimental: as §1, §2

HCC1395 = assay: Soft agar assay, IC50 of single agents in HCC1395; type: cell-based; details: Homo sapiens
Experimental: as §1, §2

[2] = Tolerability in the MDA-MB-231 xenograft model (body weight, mortalities); details: for Final body-weight / Body-weight change: mean ± SD
Experimental: The mice were housed on irradiated Enrich-o'Cobs™ Laboratory Animal Bedding in static micro-isolators on a 12-hour light cycle at 20-22° C. (68-72° F.) and 40-60% humidity. Charles River Discovery Services North Carolina (CR Discovery Services) specifically complies with the recommendations of the Guide for Care and Use of Laboratory Animals with respect to restraint, husbandry, surgical procedures, feed and fluid regulation, and veterinary care. The animal care and use program at CR Discovery Services is accredited by the Association for Assessment and Accreditation of Laboratory Animal Care International (AAALAC), which assures compliance with accepted standards for the care and use of laboratory animals. These considerations were taken into account in the way that the dosage regimes were designed and implemented.
All doses were adjusted to 10 mL/kg. The control groups received oral doses of vehicle (pH 5 buffered 0.9% NaCl solution). Eribulin was administered i.v. and BAL101553 orally. When eribulin and BAL0101553 were dosed in combination, Eribulin was administered to all groups first followed by BAL0101553 dosing within 30 minutes of the first regimen.
Body weights were recorded daily for days 1-5 and then twice weekly until the end of the study and tumor volumes were recorded twice weekly until the end of the experiment. These parameters were analyzed and graphically represented by using GraphPad-Prism™ 5 for Windows according to standard procedure. […] Skin and subcutaneous tissue including the tumor cell inoculation site from the flank region were resected, preserved in formalin and embedded in paraffin. Sections of approximately 5 μm were mounted on glass slides and stained with hematoxylin/eosin and were evaluated by a trained pathologist, to identify residual tumor cells at the site of injection, and were being reported as positive for the existence of residual tumor cells or as negative for a complete lack of any evidence of residual tumor cells.

[3] = E1A, Day 25, i.v. 0.1 mg/kg q2d D1-D9, 0.1 mg/kg q2d D12-D34
[4] = E1A, Day 25, i.v. 0.5 mg/kg q2d D1-D9, 0.5 mg/kg q2d D12-D34
[5] = E1B, Day 26, i.v. 0.1 mg/kg q2d D1-D21, 0.1 mg/kg q2d D25-D43
[6] = E1B, Day 26, i.v. 0.25 mg/kg q2d D1-D21, 0.25 mg/kg q2d D25-D43
[7] = E1B, Day 26, i.v. 0.5 mg/kg q2d D1-D21, 0.5 mg/kg q2d D25-D43

N#CCCNc1nonc1-c1nc2ccccc2n1CC(=O)c1ccc(N)cc1 [BAL27862, 3-(4-{1-[2-(4-Amino-phenyl)-2-oxo-ethyl]-1H-benzoimidazol-2-yl}-furazan-3-ylamino)-propionitrile]
plasma concentrations, single agent vs combination [1]: did not change significantly
IC50 (MiaPaCa2): 9 nM
IC50 (HCT116): 18 nM
IC50 (HCC1395): 10 nM

C=C1C[C@@H]2CC[C@@]34C[C@H]5O[C@H]6[C@@H](O3)[C@H]3O[C@H](CC[C@@H]3O[C@H]6[C@H]5O4)CC(=O)C[C@@H]3[C@@H](OC)[C@@H](C[C@H](O)CN)O[C@H]3C[C@H]3O[C@@H](CC[C@@H]1O2)C[C@@H](C)C3=C.CS(=O)(=O)O [Eribulin, (2R, 3R, 3aS, 7R, 8aS, 9S, 10aR, 11S, 12R, 13aR, 13bS, 15S, 18S, 21S, 24S, 26R, 28R, 29aS)-2-[(2S)-3-Amino-2-hydroxypropyl]-3-methoxy-26-methyl-20,27-dimethylidenehexacosahydro-11,15:18,21:24,28-triepoxy-7,9-ethano-12,15-methano-9H,15H-furo[3,2-i]furo[2′,3′:5,6]pyrano[4,3-b][1,4]dioxacyclopentacosin-5(4H)-one methanesulfonate (salt)]
T/C (TC-BW, body weight) [2, 3]: 1.00
T/C (TC-BW, body weight) [2, 4]: 0.96
Final body-weight [2, 3]: 25.8 ± 3.0 g
Final body-weight [2, 4]: 24.4 ± 1.9 g
Body-weight change ([2]; E1A, day-0 until day-25, i.v. 0.1 mg/kg q2d D1-D9, 0.1 mg/kg q2d D12-D34): 2.1 ± 1.0 g
Mortalities ([2]; E1A, i.v. 0.1 mg/kg q2d D1-D9, 0.1 mg/kg q2d D12-D34): 0/8
Mortalities ([2]; E1A, i.v. 0.5 mg/kg q2d D1-D9, 0.5 mg/kg q2d D12-D34): 0/8
T/C (TC-BW, body weight) [2, 5]: 1.09
T/C (TC-BW, body weight) [2, 6]: 1.02
T/C (TC-BW, body weight) [2, 7]: 1.03
Final body-weight [2, 5]: 27.9 ± 2.7 g
Final body-weight [2, 6]: 26.6 ± 1.7 g
Final body-weight [2, 7]: 25.5 ± 1.5 g
Body-weight change ([2]; E1B, day-0 until day-26, i.v. 0.1 mg/kg q2d D1-D21, 0.1 mg/kg q2d D25-D43): 3.9 ± 1.1 g
Body-weight change ([2]; E1B, day-0 until day-26, i.v. 0.25 mg/kg q2d D1-D21, 0.25 mg/kg q2d D25-D43): 2.3 ± 1.0 g
Body-weight change ([2]; E1B, day-0 until day-26, i.v. 0.5 mg/kg q2d D1-D21, 0.5 mg/kg q2d D25-D43): 2.3 ± 0.9 g
Mortalities ([2]; E1B, i.v. 0.1 mg/kg q2d D1-D21, 0.1 mg/kg q2d D25-D43): 0/10
Mortalities ([2]; E1B, i.v. 0.25 mg/kg q2d D1-D21, 0.25 mg/kg q2d D25-D43, a non-treatment related death footnoted): 0/10^+
Mortalities ([2]; E1B, i.v. 0.5 mg/kg q2d D1-D21, 0.5 mg/kg q2d D25-D43): 0/10
plasma concentrations, single agent vs combination [1]: did not change significantly
IC50 (MiaPaCa2): 0.5 nM
IC50 (HCT116): 1 nM
IC50 (HCC1395): 0.5 nM
